Data taken from patent US6703413B2 (Rhode Island Hospital, priority 1999, dated 2004).
Where two headings read alike, the source gives them in different places.

How the values were obtained:
A-549 lung tumor cells = experiment: Cell growth inhibition, 3 d exposure, cell counting; format: cell-based; conditions: Homo sapiens, A549, 72 h
Procedure: (§1) One ml of this cell suspension was added to each well of a 12 well cell culture plate that contained 3 ml of appropriate media plus serum. […] Control wells received 40 μl of 5% Kollidon 17 PF alone. Seventy-two hours later, all cells were harvested by trypsinization and cell number determined electronically using a Coulter Model Z1 particle counter (Coulter Corp., Miami, Fla.) to assess cell growth inhibition. Each experiment was performed in duplicate and repeated a minimum of three times.
(§2) Cells were seeded at a density of 1-5×10^4 cells in each well of a 6 well tissue culture flask. […] After three days, cells were harvested by trypsinization and cell number determined electronically. Cell growth inhibition was determined by comparison to non-Taurolidine exposed control cultures. The IC50 was calculated as the concentration required to inhibit cell number by 50%.

H-157 lung tumor cells = experiment: as above; format: cell-based; conditions: Homo sapiens, NCI-H157, 72 h
Procedure: as §1, §2

MNT-1 melanoma cells = experiment: as above; format: cell-based; conditions: Homo sapiens, 72 h
Procedure: as §1, §2

[1] = test system: NIH-3T3 murine fibroblasts; experiment: as above; format: cell-based
Procedure: as §1, §2

[2] = test system: PA-1 human ovarian tumor cells; experiment: as above; format: cell-based; conditions: PA-1 (ovary)
Procedure: as §1, §2

[3] = test system: NIH-3T3 murine fibroblasts; experiment: Cell cycle distribution and sub-G0/G1 DNA debris, flow cytometry; format: cell-based; conditions: NIH-3T3, 48 h
Procedure: (§3) Three×10^5 cells were seeded in plastic tissue culture flasks. […] Control cultures received an appropriate volume of Kollidine-17P. […] The percentage of DNA debris in the sub-G0/G1 region was assessed using cytofluorometric techniques. Each bar represents the mean (±SE) of three determinations. ** p≦0.01, *** p≦0.001, **** p≦0.0001
(§4) For flow cytometry studies, 1×10^6 PA-1, SKOV-3, or NIH-3T3 cells were incubated for 24 h in appropriate media containing serum. […] Control cultures for each cell line were incubated in media containing 40 μl of 5% Kollidon 17 PF alone. Forty-eight hours later, all cells were harvested by trypsinization and prepared for cytofluorometric analysis by standard methods. For example, harvested cells were resuspended in ice cold phosphate-buffered saline at a final cell density of 2×10^6 cells/ml. The cells then were stained for 30 min at room temperature in the dark with a solution of 0.05 mg/ml propidium iodide, 0.6% Igepal, and 1% sodium citrate. Flow cytometry was performed by FACScan (Becton Dickinson, Plymouth, England) using the ModFit LT program (Becton Dickinson). Statistical analysis was performed with the Kruskal Wallis non-parametric ANOVA test followed by Dunn's multiple comparisons test using Instat.
(§5) Three×10^5 cells were seeded in plastic tissue culture flasks. […] Control cultures received an appropriate volume of Kollidine-17P. After an additional 48 h, cells were harvested, stained with propidium iodide, and cell cycle distribution assessed using cytofluorometric techniques. Each value represents the percentage of cells in the noted cell cycle phases and is the mean±SEM of three determinations.

[4] = test system: PA-1 human ovarian tumor cells; experiment: as above; format: cell-based; conditions: for Cell Cycle Distribution, G0G1 / Cell Cycle Distribution, G2/M / Cell Cycle Distribution, S: PA1, 48 h
Procedure: as §3, §4, §5

[5] = test system: SKOV-3 human ovarian tumor cells; experiment: as above; format: cell-based; conditions: for Cell Cycle Distribution, G0G1 / Cell Cycle Distribution, G2/M / Cell Cycle Distribution, S: SKOV3, 48 h
Procedure: as §3, §4, §5

[6] = test system: SKOV-3 human ovarian tumor xenografts; experiment: Therapeutic effectiveness against i.p. human ovarian tumor xenografts; format: in vivo, female nude mice
Excerpt: Fourteen days following the final Taurolidine injection, mice in all groups were sacrificed and the peritoneal cavity examined for the presence of tumors. Each experimental was repeated three times and the pooled number of animals in each group ranged from 15-21.
Fourteen days following the final Taurolidine injection, mice in all groups were sacrificed, i.p. ovarian tumor xenografts removed and tumor weighed. Each experiment was repeated three times and the pooled number of animals in each group ranged from 15-21. Each bar represents the mean (±SE) tumor weight of 15-21 animals. ***p≦0.001, **** p≦0.0001.
To evaluate therapeutic effectiveness, mice received a single intraperitoneal injection of 5×10^6 SKOV-3 cells in a volume of 0.5 ml. Immediately thereafter, mice were randomly divided into treatment groups of 7 animals. […] Control animals received 1 ml injections of 5% Kollidon 17 PF alone. Animals were examined daily and body weight recorded twice weekly. […] The mean tumor weight for each treatment group was calculated and statistical analysis of differences in the mean tumor weight between treatment groups employed the Student's t-test. p-values of ≦0.05 were considered significant.
Studies next evaluated the antineoplastic activity of this regimen in mice bearing i.p. human ovarian tumor xenografts derived from the SKOV-3 cell line. Mice were injected i.p. with 5×10^6 SKOV-3 cells. […] Fourteen days following the termination of Taurolidine therapy, mice were sacrificed and all i.p. tumors removed and weighed.

[7] = test system: human Burkitt's lymphoma cell line, Daudi cell line; experiment: Killing of non-anchorage-dependent tumor cells in suspension culture; format: cell-based; conditions: 10-20 μM for 72 hours
Procedure: Two different non-anchorage-dependent tumor cell lines (a human Burkitt's lymphoma cell line, and a Daudi cell line), and precancerous cell line (a human myelodysplastic cell line) were grown in suspension culture.

[8] = test system: advanced recurrent glioblastoma multiforma; experiment: Clinical use in tumor patients; format: in vivo, human
Procedure: Taurolidine was administered by i.p. lavage immediately following surgery for removal of recurrent ovarian tumors. For patients with glioblastoma, taurolidine was administered systemically.
Four patients, which were diagnosed with advanced recurrent glioblastoma multiforma, were treated with taurolidine. The prognosis for this group of patients was determined to be approximately 8 weeks of survival.

[9] = therapy delayed for up to 3 d after tumor cell injection
[10] = therapy initiated on the day of tumor cell injection

O=S1(=O)CCN(CN2CCS(=O)(=O)NC2)CN1 [Taurolidine, Bis-(1,1-dioxoperhydro-1,2,4-thiadiazinyl-4)methane]
IC50 (A-549 lung tumor cells): 26.8 ± 7.2 µM | IC50 (H-157 lung tumor cells): 32.2 ± 5.6 µM | IC50 (MNT-1 melanoma cells): 22.1 ± 2.1 µM | IC50 [1]: 11.9 ± 1.8 µM | IC50 ([1]; Mus musculus, NIH3T3, 72 h): ~10 µM | IC50 ([2]; Homo sapiens, 72 h): ~10 µM | IC50 [2]: 11.4 ± 1.8 µM | Cell Cycle Distribution, G0G1 ([3]; 25 μM): 42.5 ± 9.6% | Cell Cycle Distribution, G2/M ([3]; 25 μM): 13.0 ± 4.0% | Cell Cycle Distribution, S ([3]; 25 μM): 44.9 ± 5.6% | Cell Cycle Distribution, G0G1 ([3]; 50 μM): 33.9 ± 10.2% | Cell Cycle Distribution, G2/M ([3]; 50 μM): 21.8 ± 4.6% | Cell Cycle Distribution, S ([3]; 50 μM): 44.3 ± 5.9% | Cell Cycle Distribution, G0G1 ([3]; 100 μM): 25.8 ± 1.7% | Cell Cycle Distribution, G2/M ([3]; 100 μM): 11.0 ± 11.0% | Cell Cycle Distribution, S ([3]; 100 μM): 63.2 ± 9.8% | DNA debris in the sub-G0/G1 region ([3]; 25-100 μM): did not significantly affect the appearance of DNA debris | Cell Cycle Distribution, G0G1 ([4]; 25 μM): 28.4 ± 0.5% | Cell Cycle Distribution, G2/M ([4]; 25 μM): 24.7 ± 0.9% | Cell Cycle Distribution, S ([4]; 25 μM): 46.8 ± 0.6% | Cell Cycle Distribution, G0G1 ([4]; 50 μM): 23.7 ± 2.2% | Cell Cycle Distribution, G0G1 ([4]; 100 μM): 28.4 ± 5.6% | Cell Cycle Distribution, G2/M ([4]; 100 μM): 27.2 ± 17.9% | Cell Cycle Distribution, S ([4]; 100 μM): 44.5 ± 23.5% | DNA debris in the sub-G0/G1 region ([4]; PA-1, 48 h, 25-100 μM): appearance of DNA debris in the sub-G0G1 region | Cell Cycle Distribution, G0G1 ([5]; 25 μM): 45.8 ± 2.7% | Cell Cycle Distribution, G2/M ([5]; 25 μM): 12.3 ± 3.1% | Cell Cycle Distribution, S ([5]; 25 μM): 41.9 ± 4.2% | Cell Cycle Distribution, G0G1 ([5]; 50 μM): 30.7 ± 9.4% | Cell Cycle Distribution, G2/M ([5]; 50 μM): 30.3 ± 10.5% | Cell Cycle Distribution, S ([5]; 50 μM): 45.5 ± 12.4% | Cell Cycle Distribution, G0G1 ([5]; 100 μM): 19.9 ± 6.1% | Cell Cycle Distribution, G2/M ([5]; 100 μM): 25.9 ± 7.8% | Cell Cycle Distribution, S ([5]; 100 μM): 54.2 ± 8.6% | DNA debris in the sub-G0/G1 region ([5]; SKOV-3, 48 h, 25-100 μM): appearance of DNA debris in the sub-G0G1 region | ascites formation ([6]; 20 mg/mouse/injection x 3 d i.p. from day of tumor cell injection): no evidence of ascites formation | Mean tumor weight ([6]; 20 mg/mouse/injection x 3 d i.p. from day of tumor cell injection, nineteen days after injection): less than 50 mgs | mean tumor size versus controls [6, 9]: significantly smaller than in controls | mice tumor free upon sacrifice [6, 9]: approximately 10% | tumor growth ([6]; therapy initiated 5 d after tumor cell injection (established i.p. tumors)): significantly inhibiting tumor growth | mean tumor size in treated mice with tumors, smaller than control [6, 10]: approximately 40 fold | treated mice with no evidence of disease upon sacrifice [6, 10]: ~80% | cells died [7]: 50% | patients in whom the tumor mass decreased or stayed the same ([8]; 20 g i.v. over 6 hours twice a week, at least one 5 week regimen): 3 out of the 4 | tolerability in patients ([8]; i.p. lavage (recurrent ovarian tumors) or systemic (glioblastoma)): well tolerated | survival after initiation of therapy, each patient alive ([8]; prognosis approximately 8 weeks): ≥ 14 weeks
